Source: patent publication US20120264685A1 (priority 2009, published 2012)

System: male C57BL/6J mice
Test: Acute single dose 120-min time-course experiment, in vivo glucose reduction
Design: unit not given here
Conditions: n = 8, Mean ± SEM
Protocol: Acute single dose 120-min time-course experiments were carried out in male C57BL/6J or db/db mice, age 8-12 weeks, bred in-house. The animals were housed in groups of 6 animals per cage, for a week, in order to habituate them to vivarium conditions (25+4° C., 60-65% relative humidity, 12:12 h light: dark cycle, with lights on at 7.30 am). All the animal experiments were carried out according to the internationally valid guidelines following approval by the ‘Zydus Research Center animal ethical committee’.
[…] On the day of experiment, food was withdrawn from all the cages, water was given ad-libitum and were kept for overnight fasting. Vehicle (normal saline)/test/standard compounds were administered intraperitoneally (i.p.) or orally, on a body weight basis. Soon after the 0 min. blood collection from each animal, the subsequent blood collections were done at 30, 60 and 120 or upto 240 min., via retro-orbital route, under light ether anesthesia (Chen, D., et al., Diabetes Obesity Metabolism, 2005, 7, 307. Kim, J. G. et al., Diabetes, 2003, 52, 751).
The blood samples were centrifuged and the separated serum was immediately subjected for the glucose estimation. The serum for insulin estimation was stored at −70° C. until used for the insulin estimation. The glucose estimation was carried out with DPEC-GOD/POD method (Ranbaxy Fine Chemicals Limited, Diagnostic division, India), using Spectramax-190, in 96-microwell plate reader (Molecular devices Corporation, Sunnyvale, Calif.). […] The AUC and BCAUC obtained from graphs were analyzed for one way ANOVA, followed by Dunnett's post test, using Graph Pad prism software. Furthermore, the insulin estimation was carried out using rat/mouse insulin ELISA kit (Linco research, Missouri USA).

SMILES	blood glucose level (in vivo glucose reduction) (2 μM/kg, oral, 0 min)	blood glucose level (in vivo glucose reduction) (2 μM/kg, oral, 30 min)	blood glucose level (in vivo glucose reduction) (2 μM/kg, oral, 60 min)	blood glucose level (in vivo glucose reduction) (2 μM/kg, oral, 120 min)	further results
CCc1cc(OC)ccc1-c1ccc(CC(C)(NC(=O)C(C)(CC(=O)O)NC(=O)[C@H](CO)NC(=O)[C@@H](NC(=O)[C@H](Cc2ccccc2)NC(=O)[C@@H](NC(=O)CNC(=O)[C@H](CCC(=O)O)NC(=O)C2(C)CCCN2C(=O)[C@H](Cc2c[nH]cn2)NC(=O)[C@@H](N)C(C)C)[C@@H](C)O)[C@@H](C)O)C(=O)NC(CCCc2ccccc2)C(N)=O)cc1 (single isomer, unassigned) [Seq. ID. No. 64, VH-(αMe-Pro)-EGTFTS-(αMe-Asp)-(αMe-Bip(OMe))-(APPA)]	183 ± 2.4	116 ± 3.1	112 ± 4.8	110 ± 2.5	–
CCc1cc(OC)ccc1-c1ccc(CC(C)(NC(=O)C(C)(CC(=O)O)NC(=O)[C@H](CO)NC(=O)[C@@H](NC(=O)C(C)(Cc2c(F)cccc2F)NC(=O)[C@@H](NC(=O)CNC(=O)[C@H](CCC(N)=O)NC(=O)C2(C)CCCN2C(=O)[C@H](Cc2c[nH]cn2)NC(=O)[C@@H](N)C(C)C)[C@@H](C)O)[C@@H](C)O)C(=O)NC(CCCc2ccccc2)C(N)=O)cc1 (single isomer, unassigned) [Seq. ID. No. 76, VH-(αMe-Pro)-QGT-(αMe-2,6-diFPhe)-TS-(αMe-Asp)-(αMe-Bip(OMe))-(APPA)]	183 ± 2.4	116 ± 3.1	112 ± 4.8	110 ± 2.5	–
CCc1cc(OC)ccc1-c1ccc(CC(NC(=O)[C@H](CC(=O)O)NC(=O)[C@H](CO)NC(=O)[C@@H](NC(=O)C(C)(Cc2c(F)cccc2F)NC(=O)[C@@H](NC(=O)CNC(=O)[C@H](CCC(N)=O)NC(=O)[C@H](CO)NC(=O)[C@H](Cc2c[nH]cn2)NC(=O)[C@@H](N)C(C)C)[C@@H](C)O)[C@@H](C)O)C(=O)NC(C)(CCCc2ccccc2)C(N)=O)cc1 (single isomer, unassigned) [Seq. ID. No. 99, VHSQGT-(αMe-2,6-diF-Phe)-TSD-Bip(OMe)-(αMe-APPA)]	184 ± 2.5	118 ± 3.6	113 ± 4.2	110 ± 2.4	–
CCc1cc(OC)ccc1-c1ccc(CC(NC(=O)[C@H](CC(=O)O)NC(=O)[C@H](CO)NC(=O)[C@@H](NC(=O)C(C)(Cc2c(F)cccc2F)NC(=O)[C@@H](NC(=O)CNC(=O)[C@H](CCC(=O)O)NC(=O)C(C)(C)NC(=O)[C@H](Cc2c[nH]cn2)NC(=O)[C@@H](N)C(C)C)[C@@H](C)O)[C@@H](C)O)C(=O)NC(C)(CCCc2ccccc2)C(N)=O)cc1 (single isomer, unassigned) [Seq. ID. No. 105, VH-Aib-EGT-(αMe-2,6-diFPhe)-TSD-Bip(OMe)-(αMe-APPA)]	185 ± 2.1	115 ± 2.8	112 ± 4.9	111 ± 2.2	–
CCc1cc(OC)ccc1-c1ccc(CC(NC(=O)C(C)(CC(=O)O)NC(=O)C(C)(CO)NC(=O)[C@@H](NC(=O)C(C)(Cc2ccccc2F)NC(=O)[C@@H](NC(=O)CNC(=O)[C@H](CCC(N)=O)NC(=O)C2(C)CCCN2C(=O)[C@H](Cc2c[nH]cn2)NC(=O)[C@@H](N)C(C)C)[C@@H](C)O)[C@@H](C)O)C(=O)NC(C)(CCCc2ccccc2)C(N)=O)cc1 (single isomer, unassigned) [Seq. ID. No. 118, VH-(αMe-Pro)-QGT-(αMe-2FPhe)-T-(αMe-Ser)-(αMe-Asp)-Bip(OMe)-(αMe-APPA)]	184 ± 2.5	115 ± 1.6	113 ± 3.2	110 ± 2.4	–
CCc1cc(OC)ccc1-c1ccc(CC(NC(=O)C(C)(CC(=O)O)NC(=O)C(C)(CO)NC(=O)[C@@H](NC(=O)C(C)(Cc2c(F)cccc2F)NC(=O)[C@@H](NC(=O)CNC(=O)[C@H](CCC(=O)O)NC(=O)C(C)(C)NC(=O)[C@H](Cc2c[nH]cn2)NC(=O)[C@@H](N)C(C)C)[C@@H](C)O)[C@@H](C)O)C(=O)NC(C)(CCCc2ccccc2)C(N)=O)cc1 (single isomer, unassigned) [Seq. ID. No. 129, VH-Aib-EGT-(αMe-2,6-diFPhe)-T-(αMe-Ser)-(αMe-Asp)-Bip(OMe)-(αMe-APPA)]	183 ± 2.4	116 ± 3.1	112 ± 4.8	110 ± 2.5	–
CCc1cc(OC)ccc1-c1ccc(CC(C)(NC(=O)[C@H](CC(=O)O)NC(=O)[C@H](CO)NC(=O)[C@@H](NC(=O)C(C)(Cc2ccccc2F)NC(=O)[C@@H](NC(=O)CNC(=O)[C@H](CCC(=O)O)NC(=O)[C@H](CO)NC(=O)[C@H](Cc2c[nH]cn2)NC(=O)[C@@H](N)C(C)C)[C@@H](C)O)[C@@H](C)O)C(=O)NC(C)(CCCc2ccccc2)C(N)=O)cc1 (single isomer, unassigned) [Seq. ID. No. 145, VHSEGT-(αMe-2FPhe)-TSD-(αMe-Bip(OMe))-(αMe-APPA)]	184 ± 2.2	118 ± 3.3	112 ± 4.4	110 ± 2.9	–
CCc1cc(OC)ccc1-c1ccc(CC(C)(NC(=O)[C@H](CC(=O)O)NC(=O)C(C)(CO)NC(=O)[C@@H](NC(=O)C(C)(Cc2ccccc2F)NC(=O)[C@@H](NC(=O)CNC(=O)[C@H](CCC(N)=O)NC(=O)[C@H](C)NC(=O)[C@H](Cc2c[nH]cn2)NC(=O)[C@@H](N)C(C)C)[C@@H](C)O)[C@@H](C)O)C(=O)NC(C)(CCCc2ccccc2)C(N)=O)cc1 (single isomer, unassigned) [Seq. ID. No. 166, VHAQGT-(αMe-2FPhe)-T-(αMe-Ser)-D-(αMe-Bip(OMe))-(αMe-APPA)]	–	–	–	–	blood glucose level (in vivo glucose reduction) (0.5 μM/kg, oral, 0 min): 184 ± 2.5; blood glucose level (in vivo glucose reduction) (0.5 μM/kg, oral, 30 min): 115 ± 3.6; blood glucose level (in vivo glucose reduction) (0.5 μM/kg, oral, 60 min): 113 ± 4.2; blood glucose level (in vivo glucose reduction) (0.5 μM/kg, oral, 120 min): 110 ± 2.4
CCc1cc(OC)ccc1-c1ccc(CC(C)(NC(=O)[C@H](CC(=O)O)NC(=O)C(C)(CO)NC(=O)[C@@H](NC(=O)C(C)(Cc2c(F)cccc2F)NC(=O)[C@@H](NC(=O)CNC(=O)[C@H](CCC(=O)O)NC(=O)[C@H](CO)NC(=O)[C@H](Cc2c[nH]cn2)NC(=O)[C@@H](N)C(C)C)[C@@H](C)O)[C@@H](C)O)C(=O)NC(C)(CCCc2ccccc2)C(N)=O)cc1 (single isomer, unassigned) [Seq. ID. No. 177, VHSEGT-(αMe-2,6-diFPhe)-T-(αMe-Ser)-D-(αMe-Bip(OMe))-(αMe-APPA)]	183 ± 2.4	116 ± 3.1	112 ± 4.8	110 ± 2.5	–
CCc1cc(OC)ccc1-c1ccc(CC(C)(NC(=O)[C@H](CC(=O)O)NC(=O)C(C)(CO)NC(=O)[C@@H](NC(=O)C(C)(Cc2c(F)cccc2F)NC(=O)[C@@H](NC(=O)CNC(=O)[C@H](CCC(=O)O)NC(=O)C(C)(C)NC(=O)[C@H](Cc2c[nH]cn2)NC(=O)[C@@H](N)C(C)C)[C@@H](C)O)[C@@H](C)O)C(=O)NC(C)(CCCc2ccccc2)C(N)=O)cc1 (single isomer, unassigned) [Seq. ID. No. 179, VH-Aib-EGT-(αMe-2,6-diFPhe)-T-(αMe-Ser)-D-(αMe-Bip(OMe))-(αMe-APPA)]	–	–	–	–	blood glucose level (in vivo glucose reduction) (20 nM/kg, i.p, 0 min): 182 ± 2.1; blood glucose level (in vivo glucose reduction) (20 nM/kg, i.p, 30 min): 121 ± 2.9; blood glucose level (in vivo glucose reduction) (20 nM/kg, i.p, 60 min): 130 ± 3.1; blood glucose level (in vivo glucose reduction) (20 nM/kg, i.p, 120 min): 138 ± 2.4
CCc1cc(OC)ccc1-c1ccc(CC(C)(NC(=O)C(C)(CC(=O)O)NC(=O)[C@H](CO)NC(=O)[C@@H](NC(=O)[C@H](Cc2ccccc2)NC(=O)[C@@H](NC(=O)CNC(=O)[C@H](CCC(=O)O)NC(=O)C(C)(C)NC(=O)[C@H](Cc2c[nH]cn2)NC(=O)[C@@H](N)C(C)C)[C@@H](C)O)[C@@H](C)O)C(=O)NC(C)(CCCc2ccccc2)C(N)=O)cc1 (single isomer, unassigned) [Seq. ID. No. 187, VH-Aib-EGTFTS-(αMe-Asp)-(αMe-Bip(OMe))-(αMe-APPA)]	183 ± 2.4	119 ± 3.1	112 ± 4.8	110 ± 2.5	–
